Each structure is given as a SMILES string.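 Interpolation was linear, between the two tested concentrations surrounding the appropriate level; five concentrations were tested over 48 hours in 96-well plates. At the TGI there is no net growth.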

Some test systems named below: OVCAR-3 ovarian; RPMI-8226 leukemia; 786-0 renal; BT-549 breast; SNB-19 CNS; NCI-H23 lung; SF-268 CNS; UACC-62 melanoma; HT29 colon; OVCAR-4 ovarian; EKVX NSCLC; HCT-116 colon; OVCAR-8 ovarian; MCF7 breast; U251 CNS; HL-60(TB) leukemia.
Common to all, as to experiment: inhibition of tumour cell growth, NCI panel, 48 h

In the case of `CCOc1cc2c(cc1O)C(O)C[C@@H]1[C@@H]2CC[C@]2(C)[C@@H](O)CC[C@@H]12` (some centres not stated), the TGI with OVCAR-3 ovarian is over 100 µM; in the assay on RPMI-8226 leukemia, over 34 µM; in the assay with 786-0 renal, over 83 µM; in the assay with BT-549 breast it was over 100 µM; in the assay with SNB-19 CNS it was over 61.8 µM; in the assay on NCI-H23 lung, over 24.7 µM. The TGI is over 100 µM with SF-268 CNS; over 100 µM with UACC-62 melanoma; 25.1 µM with HT29 colon; over 100 µM with OVCAR-4 ovarian; over 100 µM in the assay with EKVX NSCLC; over 100 µM in the assay on HCT-116 colon. The values for the TGI in the assay with OVCAR-8 ovarian and with MCF7 breast were over 50.4 µM and over 100 µM, respectively.

As to `CC1=CCC[C@H]2[C@](C)(CC3=CC(=O)C(SCC(C)C)=CC3=O)[C@@H](C)CC[C@]12C`, the TGI in the assay on OVCAR-3 ovarian was 42.1 µM; in the assay with RPMI-8226 leukemia, 14.3 µM; in the assay on 786-0 renal, 27.2 µM; in the assay with BT-549 breast, 35.8 µM; in the assay on SNB-19 CNS, 34.6 µM; with NCI-H23 lung it was 25.5 µM. In addition, the TGI in the assay on UACC-62 melanoma worked out at 28.8 µM; in the assay with HT29 colon, 29.9 µM; in the assay with OVCAR-4 ovarian it was 31.8 µM; in the assay with EKVX NSCLC it was 31 µM; in the assay on U251 CNS, 42.3 µM; in the assay on HCT-116 colon it was 24.8 µM. Moreover, the TGI in the assay on OVCAR-8 ovarian was found to be 26.1 µM; with MCF7 breast it was 37.7 µM.

For the compound `S=C1SC(=Nc2ccccc2)C(=Nc2ccccc2)N1c1ccc2ccccc2c1`, the TGI with HL-60(TB) leukemia, in the assay on OVCAR-3 ovarian, with RPMI-8226 leukemia, in the assay with BT-549 breast, with SNB-19 CNS and in the assay on NCI-H23 lung was over 100 µM each time. Also, the TGI with UACC-62 melanoma, in the assay on OVCAR-4 ovarian, with U251 CNS, in the assay on HCT-116 colon, in the assay on OVCAR-8 ovarian and with MCF7 breast was over 100 µM throughout.

Consider `CC(C)CCOC(=O)NC(Nc1ccc(F)cc1)(C(F)(F)F)C(F)(F)F`, for which the TGI with HL-60(TB) leukemia, in the assay with OVCAR-3 ovarian, in the assay on RPMI-8226 leukemia, in the assay on 786-0 renal, in the assay on BT-549 breast and with SNB-19 CNS was over 100 µM each time. Further, the TGI with NCI-H23 lung, with SF-268 CNS, in the assay on UACC-62 melanoma, with HT29 colon, with EKVX NSCLC and with U251 CNS was over 100 µM throughout. In addition, the TGI with HCT-116 colon, in the assay with OVCAR-8 ovarian and in the assay on MCF7 breast was over 100 µM in each case.

Turning to `COC(NC(=O)Nc1ccccc1C)(C(F)(F)F)C(F)(F)F`, the TGI in the assay on HL-60(TB) leukemia, in the assay with OVCAR-3 ovarian, in the assay with RPMI-8226 leukemia, with 786-0 renal, with BT-549 breast and in the assay on SNB-19 CNS was over 100 µM throughout. In addition, the TGI in the assay with NCI-H23 lung, with SF-268 CNS, in the assay on UACC-62 melanoma, in the assay on HT29 colon, with OVCAR-4 ovarian and with U251 CNS was over 100 µM each time. Moreover, the TGI with HCT-116 colon, in the assay on OVCAR-8 ovarian and in the assay with MCF7 breast was over 100 µM in each case.

With `Cc1cc(-c2nc3cccc(O)c3s2)ccc1N`, the TGI in the assay on HL-60(TB) leukemia was 47.2 µM; with OVCAR-3 ovarian it was over 100 µM; in the assay with RPMI-8226 leukemia, over 100 µM; with 786-0 renal, over 100 µM; with BT-549 breast, 54.7 µM; in the assay on SNB-19 CNS, 7.43 µM. Moreover, the TGI in the assay on NCI-H23 lung is 93 µM; with SF-268 CNS it was over 100 µM; in the assay on UACC-62 melanoma, 33.1 µM; in the assay with HT29 colon, over 100 µM; in the assay with EKVX NSCLC it was over 100 µM; in the assay with U251 CNS it was over 100 µM. The TGI with HCT-116 colon is over 100 µM; with OVCAR-8 ovarian, 99 µM; with MCF7 breast it was 34.1 µM.

As for `Cc1c([C@H](C)[C@@H]2NC[C@@H](C)C[C@H]2O)ccc2c1C[C@H]1[C@H]2CC=C2C[C@@H](O)CC[C@@]21C`, the TGI came to 41.5 µM with OVCAR-3 ovarian; 17.9 µM in the assay with RPMI-8226 leukemia; 37.9 µM in the assay with 786-0 renal; 54.5 µM in the assay with BT-549 breast; 82.3 µM in the assay on SNB-19 CNS; 37.9 µM in the assay with NCI-H23 lung. Besides, the TGI is over 100 µM in the assay with SF-268 CNS; 28.1 µM in the assay with UACC-62 melanoma; 42 µM with HT29 colon; 40 µM in the assay with OVCAR-4 ovarian; 8.53 µM in the assay on EKVX NSCLC; 30.3 µM in the assay with U251 CNS. The TGI was 30.6 µM with HCT-116 colon, over 100 µM in the assay with OVCAR-8 ovarian and 31.5 µM in the assay with MCF7 breast.

Consider `Oc1ccc(Oc2cc3c(cc2Oc2ccc(O)cc2)-c2nc-3nc3[nH]c(nc4nc(nc5[nH]c(n2)c2cc(Oc6ccc(O)cc6)c(Oc6ccc(O)cc6)cc52)-c2cc(Oc5ccc(O)cc5)c(Oc5ccc(O)cc5)cc2-4)c2cc(Oc4ccc(O)cc4)c(Oc4ccc(O)cc4)cc32)cc1`, for which the TGI with OVCAR-3 ovarian, with 786-0 renal, with BT-549 breast, in the assay on SNB-19 CNS, with NCI-H23 lung and in the assay on SF-268 CNS was over 100 µM in each case. For the same compound, the TGI in the assay with UACC-62 melanoma, with HT29 colon, in the assay with OVCAR-4 ovarian, with EKVX NSCLC, with U251 CNS and with HCT-116 colon was over 100 µM in each case. Also, the TGI in the assay on OVCAR-8 ovarian and in the assay with MCF7 breast was over 100 µM each time.

As for `CC(C)(C)OC(=O)c1ccc(NCC2=C(Br)C(=O)C=CC2=O)cc1`, the TGI in the assay on OVCAR-3 ovarian was 27.7 µM; in the assay with RPMI-8226 leukemia, over 100 µM; with 786-0 renal, 37.5 µM; in the assay with BT-549 breast, 26.5 µM; with SNB-19 CNS, over 100 µM; with NCI-H23 lung it was 50.6 µM. Also, the TGI with SF-268 CNS was over 67.8 µM; in the assay on UACC-62 melanoma it was 36.1 µM; with HT29 colon it was 33.9 µM; with OVCAR-4 ovarian, 33 µM; in the assay on EKVX NSCLC, 53.9 µM; in the assay on U251 CNS, over 66.6 µM. For the same compound, the results for the TGI with HCT-116 colon, in the assay on OVCAR-8 ovarian and in the assay with MCF7 breast were 35.2 µM, 39.8 µM and 48.4 µM, respectively.

On to `CCCCCCCCC#CCCCCCCCCCC[C@@H]1C(=O)O[C@H](C)[C@@H]1O` (tested in a mixture with another compound), for which the TGI with OVCAR-3 ovarian stood at 38.6 µM; in the assay on RPMI-8226 leukemia it was 39.9 µM; in the assay with 786-0 renal it was 31.4 µM; in the assay on BT-549 breast, 38.5 µM; with SNB-19 CNS, 38.1 µM; in the assay with NCI-H23 lung, 22.3 µM. Moreover, the TGI is 30.4 µM with SF-268 CNS; 54.9 µM in the assay on OVCAR-4 ovarian; 54.9 µM in the assay with EKVX NSCLC; over 100 µM with U251 CNS; over 100 µM with HCT-116 colon; 29.1 µM with OVCAR-8 ovarian. This compound came in with a TGI in the assay on MCF7 breast of 50.5 µM.

These data come from PubChem BioAssay (NCI).
